{"source": "patent US10857180B2", "about": "“Pharmaceutical composition for improving health, cure abnormalities and degenerative disease, achieve anti-aging effect of therapy and therapeutic effect on mammals and method thereof” (priority 2014, dated 2020)", "key": {"[1]": {"tested_on": "renal cell carcinoma (PA) cells", "assay": "Transformation of PA tumor cells into type A/B cells (trypan blue)", "assay_type": "cell-based, rat", "details": "for concentration of cells of type A at first calculation: 10 hours after start, both concentration models; for time for 80% of the transformation into phenotype A: total time 140 hours", "source_text": "Staining of Cell Suspension with Trypan Blue and Visual Control of Changes in the Shape, Color and Size of the Cells will now be discussed. The visual control method was based on the observation of state of the plasma membrane permeability after the action of materials under study, and reflects the degree of membrane's damage, making it possible to estimate an ability of nuclear proteins to absorb the dye.\nTo make the analysis, the cell suspension, after it was exposed to the action of materials, in a volume of 20 mcl was mixed with 20 mcl of trypan blue solution and resuspended. The obtained solution was placed in a hemocytometer chamber for visual analysis and quantitative estimation of the cells. To make the quantitative estimation of the cells, they were separated from the substrate using Versene solution and counted by staining cells with trypan. A change in the color of a cell was indicative of the violation of intactness of the cell membrane, and the more pronounced was the coloration, the less viable the cell was. […] They are easily distinguishable from dark damaged cells and easily identified with ordinary light microscope.\nPrimary cell culture for our in vitro experiments was obtained by enzymatic treatment of tumor material (using trypsin solution) from a strain of renal cell carcinoma (PA) in a rat Visually (after its removal from the animal), the tumor looked as a nodular fleshy growth of a whitish-pink color of rather dense consistency, marginated from other tissues by a joint capsule. The main morphological signs of PA tumor in the animal can be described as follows. Small (1.5 to 2 grams) fragments without vessels and blastic lesions were excised aseptically from the surgically removed tumor and then cut them with scissors to smaller pieces of 0.2 to 0.3 mm in size and cultured in a solution of trypsin. The culture medium contained the following components: RPMI-1640 (Sigma, USA) as the base plus 10% newborn calf serum and 40 mcg/ml of gentamicin. Trypsinization was performed in a humidified atmosphere of 5% CO2 at 37° C. with constant mixing of the contents in a magnetic stirrer. The isolated cells were washed three times in a culture medium by centrifuging and before starting the experiment a quantitative assessment of cells was carried out in the Goryaev chamber with supravital staining of the cells with trypan blue.\nAnalysis of the effect of all components on the renal cell carcinoma (PA) was conducted to determine the relationship between the amount of the preparation (concentration characteristics of the component) and the quantitative characteristics of the cells. Assessment of the effect of the components was carried out on 2 concentration models with 30 and 300 thousand original tumor cells. After the cells were cultured, cell suspensions were prepared in the plates with the culture medium and an effect of the preparations (in various concentrations) on the tumor cells was assessed. The experiment was started with the concentration of 10 mg of the active substance per 1 ml of the solvent (saline with 5% glucose).\nThe amount of culture medium in each well was 200 mcl for 30 thousand cells and 2 ml for 300 thousand cells, respectively. The amounts of drugs (active substances) for 2 concentration models differed according to the amount of cells and culture medium, i.e., the amount of drug in the experiment with 300 thousand cells was ten times as large as compared with the same in the experiment with 30 thousand cells. The result of effects of the components is shown in FIGS. 22, 23 for light isotope components and in FIG. 25 for the elements with natural distribution of isotopes. Assessment of the effect of the components was performed by comparing the external factors of cells (color, size, shape) prior to the experiment and after staining. […]"}, "[2]": {"tested_on": "stem cells derived from rat fibroblasts (RF)", "assay_type": "cell-based"}, "[3]": {"tested_on": "human non-small cell lung cancer (line A-549) cells", "assay": "Immunocytochemistry (H-Score) of A-549 cells", "assay_type": "cell-based", "method": "When making the immunocytochemistry (ICC) assay, cells on microscope glasses (cytospin preparations) were fixed in the solution (methanol+acetone 1:1) for 2 hours at t 20° C. and incubated with 1% solution of bovine serum albumin (BSA) for 20 minutes. Then the monoclonal antibodies-CD44 (Diagnostic BioSystems), E-cadherin (ThermoScientific), N-cadherin (NeoMarker, BioLegend), SLUG (GeneTex)—were applied for the time period specified by the manufacturer (30 to 60 minutes), after which the Poly Vue imaging system conjugated with peroxidase was used and the enzyme activity was detected using diaminobenzidine (ThermoScientific) as a substrate. After the immunocytochemical reaction the preparations were washed with water and counterstained with hematoxylin-eosin (for 15 to 30 seconds).\nThe results were analyzed by counting cells with expression (brown colored cells) using a light microscope, and were assessed using the classical H-Score method: S=1×A+2×B+3×C, where S is the H-Score index giving a range of 0 (protein is not detected) to 300 (high-level expression in 100% of the cells); A is the percentage of weakly staining cells, B is the percentage of moderately staining cells and C is the percentage of strongly staining cells."}, "[4]": {"tested_on": "normal rat kidney cells (NRK cell line)", "assay": "Scratch assay, NRK cells", "assay_type": "cell-based", "details": "various doses; as in the control", "protocol": "The cells of A-549, A-431, NRK, HaCaT, MM-4, normal fibroblasts (derived from the Bank of Cell Lines from human and animal tissues, R. E. Kavetsky Institute of Experimental Pathology, Oncology and Radiobiology, National Academy of Sciences of Ukraine) were cultured in complete culture medium RPMI 1640/DMEM (PAA, Austria) (depending on the cell type) supplemented with 10% fetal calf serum (PAA, Austria) and incubated in 5% CO2 humidified atmosphere at 37° C. The culture medium was replaced in 2 to 3 days and the cells were passaged in 4 to 5 days.\nAnalysis of the influence of the components under study on the cell migration rate was performed using the scratch assay method. Cells (5×10^4/well) were seeded into the wells of a 12-well plate in 2 repeats in RPMI-1640/DMEM culture medium supplemented with 10% PBS, 40 mcg/ml of gentamicin and incubated in 5% CO2 humidified atmosphere at 37° C. for 24 hours.\nThe plate was incubated in a CO2 incubator for additional 48 hours. After the cells formed a dense monolayer it was damaged (by making a “scratch”) and the growth medium was replaced to remove cell debris and smooth the edges of the “scratch.” The rate of cell migration was analyzed using an inverted microscope and by photographing cells in the area of injury. The migration activity of cells was fixed at several time points (depending on the cell line analyzed). The microphotomicrographs were analyzed and the cell incubation time needed to restore the monolayer was determined for all experimental groups."}, "A-549 cell line": {"tested_on": "A-549 cell line", "assay": "Cytogenetic analysis (micronucleus test) of A-549 cells", "assay_type": "cell-based, human", "details": "for increase of cells with protrusions: A-549", "method": "Advanced Micronucleus Test was used to assess the cytogenetic characteristics of cells after their exposure to the action of the test group of components.\nCytogenetic analysis was carried out after 48 hours of exposure of the cells to the action of the components. For cytogenetic analysis, the cells were incubated in hypotonic solution KCl (0.54%) (Reahim, Ukraine) for 40 minutes at +37° C. Then they were fixed with a mixture of methyl alcohol (Reahim, Ukraine) and acetic acid (Himlaborreaktiv, Ukraine) (3:1) with replacing the fixative three times. All fixed cell suspensions were applied on cold wet glasses, dried and stained with Giemsa stain (Sigma, Germany). The cytogenetic preparations were analyzed using a binocular microscope Sari Zeiss, AxioStarPlus (Germany) with magnification of x 1000. The following quantitative characteristics and stages of cell division were analyzed on the preparations: mitoses, cells with premature chromosome condensation (PCC), cells with micronuclei (CMN), apoptotic cells and cells with nuclear protrusions (protrusions) which were calculated for 1000 cells and expressed in per mille (%)."}, "[5]": {"details": "dose not stated, 72 hours in the control"}}, "note": "Read-outs that look alike come from different tables or passages of the source.", "data": [{"smiles": "O=S(=O)([O-])[O-].[24Mg+2]", "note": "[^24Mg]", "values": [{"measurement": "concentration of cells of type A at first calculation", "setting": "[1]", "value": 100, "unit": "%"}, {"measurement": "cells of type A", "setting": "[1]; ^24Mg 0.4 mg/ml", "value": "about 5%"}, {"measurement": "cells of type A", "setting": "[1]; ^24Mg 2 mg/ml", "value": 25, "unit": "%"}, {"measurement": "cells of type B", "setting": "[1]; ^24Mg 2 mg/ml", "value": 75, "unit": "%"}, {"measurement": "cells of type A", "setting": "[1]; ^24Mg 10 mg/ml", "value": 100, "unit": "%"}, {"measurement": "changes (cell transformation) in the first 10 hours", "setting": "[1]", "value": 62, "unit": "%"}, {"measurement": "time for 80% of the transformation into phenotype A", "setting": "[1]", "value": "≤ 45", "unit": "h"}, {"measurement": "time of restoration of the cell monolayer", "setting": "[2]; ^24Mg 2 mg/ml", "value": 72, "unit": "h"}, {"measurement": "time of restoration of the cell monolayer", "setting": "[2]; ^24Mg 3 mg/ml", "value": "65 to 72", "unit": "h"}, {"measurement": "time of restoration of the cell monolayer", "setting": "[2]; ^24Mg 4 mg/ml", "value": 82, "unit": "h"}]}, {"smiles": "O=S(=O)([O-])[O-].[64Zn+2]", "note": "[^64Zn]", "values": [{"measurement": "time of transformation of 100% initial tumor cells into phenotype A", "setting": "[1]", "value": "≤ 50", "unit": "h"}, {"measurement": "A cells", "setting": "[1]; ^64Zn 0.08 mg/ml", "value": 100, "unit": "%"}, {"measurement": "cells of type A", "setting": "[1]; ^64Zn 0.128 mg/ml", "value": "about 30%"}, {"measurement": "cells of type A obtainable with 1 microgram of ^64Zn sulfate", "setting": "[1]; assuming 50% of cells transformed", "value": 23438, "unit": "cells"}, {"measurement": "cells of type A obtainable with 1 microgram of ^64Zn sulfate", "setting": "[1]; assuming 100% transformation", "value": 938, "unit": "cells"}, {"measurement": "changes (cell transformation) in the first 10 hours", "setting": "[1]", "value": 80, "unit": "%"}, {"measurement": "time for 80% of the transformation into phenotype A", "setting": "[1]", "value": "≤ 10", "unit": "h"}, {"measurement": "slug-positive cells with cytoplasmic expression", "setting": "[3]", "value": "decrease"}, {"measurement": "time of restoration of the damaged monolayer", "setting": "[4]", "value": 30, "unit": "h"}, {"measurement": "increase of cells with protrusions", "setting": "A-549 cell line", "value": "~10", "unit": "fold"}, {"measurement": "level of nuclear abnormalities vs control", "setting": "A-549 cell line; ^64Zn 20 mcg/ml, 48 hours", "value": "fifty times as high as the baseline"}, {"measurement": "level of nuclear abnormalities vs dose of 10 mcg/ml", "setting": "A-549 cell line; ^64Zn 20 mcg/ml, 48 hours", "value": "triple increase"}, {"measurement": "time of restoration of the cell monolayer", "setting": "[2]; [5]", "value": 72, "unit": "h"}]}, {"smiles": "[39K+].[Cl-]", "note": "[^39K]", "values": [{"measurement": "time of transformation of 100% initial tumor cells into phenotype A", "setting": "[1]", "value": 80, "unit": "h"}, {"measurement": "concentration of cells of type A at first calculation", "setting": "[1]", "value": 100, "unit": "%"}, {"measurement": "A cells", "setting": "[1]; ^39K 2 mg/ml", "value": "About 50%"}, {"measurement": "cells of type A", "setting": "[1]; ^39K 10 mg/ml", "value": 100, "unit": "%"}, {"measurement": "changes (cell transformation) in the first 10 hours", "setting": "[1]", "value": 40, "unit": "%"}, {"measurement": "time for 80% of the transformation into phenotype A", "setting": "[1]", "value": "≤ 20", "unit": "h"}, {"measurement": "number of slug-positive cells with nuclear expression", "setting": "[3]", "value": "significantly decreased"}, {"measurement": "number of cells with E-cadherin", "setting": "[3]; dose of IC50", "value": "inhibition"}, {"measurement": "time of restoration of the damaged monolayer", "setting": "[4]", "value": 30, "unit": "h"}, {"measurement": "increase of cells with protrusions", "setting": "A-549 cell line", "value": 15, "unit": "fold"}, {"measurement": "time of restoration of the cell monolayer", "setting": "[2]; ^39K 1 mg/ml", "value": 72, "unit": "h"}, {"measurement": "time of restoration of the cell monolayer", "setting": "[2]; ^39K 2 mg/ml", "value": 96, "unit": "h"}, {"measurement": "time of restoration of the cell monolayer", "setting": "[2]; [5]", "value": 72, "unit": "h"}]}]}
